Measurements taken from BigSolDB 2.1.

Cc1nc(C)c(C)nc1C
solubility (mole fraction)
Details | in acetone | in acetonitrile | in ethanol | in ethyl acetate | in isopropanol | in methanol | in methyl acetate | in n-butanol | in n-propanol
273.15 K | 0.0459 | 0.0279 | 0.0644 | 0.0958 | 0.0534 | 0.111 | 0.0758 | 0.106 | 0.102
278.15 K | 0.0592 | 0.034 | 0.0775 | 0.113 | 0.0702 | 0.119 | 0.094 | 0.126 | 0.114
283.15 K | 0.0712 | 0.0405 | 0.0911 | 0.136 | 0.0814 | 0.143 | 0.112 | 0.152 | 0.138
288.15 K | 0.0869 | 0.0503 | 0.11 | 0.16 | 0.0998 | 0.162 | 0.133 | 0.175 | 0.158
293.15 K | 0.106 | 0.0587 | 0.128 | 0.181 | 0.115 | 0.194 | 0.156 | 0.205 | 0.185
298.15 K | 0.132 | 0.0743 | 0.162 | 0.212 | 0.142 | 0.222 | 0.189 | 0.235 | 0.213
303.15 K | 0.156 | 0.0888 | 0.186 | 0.244 | 0.166 | 0.262 | 0.216 | 0.262 | 0.245
308.15 K | 0.185 | 0.115 | 0.216 | 0.284 | 0.196 | 0.296 | 0.254 | 0.302 | 0.3
313.15 K | 0.209 | 0.147 | 0.255 | 0.34 | 0.249 | 0.342 | 0.291 | 0.351 | 0.347
